Assay results published in paper PMC11509018, “Evaluation of the Role of Tanshinone I in an In Vitro System of Charcot-Marie-Tooth Disease Type 2N” (International Journal of Molecular Sciences, 2024).

Molecular target: T1, AlaRS G102R binding to Nrp1 (Homo sapiens, UniProt P49588, G102R)
T1 construct: expressed in transfected cells
T1 sequence (P49588 1-968 G102R): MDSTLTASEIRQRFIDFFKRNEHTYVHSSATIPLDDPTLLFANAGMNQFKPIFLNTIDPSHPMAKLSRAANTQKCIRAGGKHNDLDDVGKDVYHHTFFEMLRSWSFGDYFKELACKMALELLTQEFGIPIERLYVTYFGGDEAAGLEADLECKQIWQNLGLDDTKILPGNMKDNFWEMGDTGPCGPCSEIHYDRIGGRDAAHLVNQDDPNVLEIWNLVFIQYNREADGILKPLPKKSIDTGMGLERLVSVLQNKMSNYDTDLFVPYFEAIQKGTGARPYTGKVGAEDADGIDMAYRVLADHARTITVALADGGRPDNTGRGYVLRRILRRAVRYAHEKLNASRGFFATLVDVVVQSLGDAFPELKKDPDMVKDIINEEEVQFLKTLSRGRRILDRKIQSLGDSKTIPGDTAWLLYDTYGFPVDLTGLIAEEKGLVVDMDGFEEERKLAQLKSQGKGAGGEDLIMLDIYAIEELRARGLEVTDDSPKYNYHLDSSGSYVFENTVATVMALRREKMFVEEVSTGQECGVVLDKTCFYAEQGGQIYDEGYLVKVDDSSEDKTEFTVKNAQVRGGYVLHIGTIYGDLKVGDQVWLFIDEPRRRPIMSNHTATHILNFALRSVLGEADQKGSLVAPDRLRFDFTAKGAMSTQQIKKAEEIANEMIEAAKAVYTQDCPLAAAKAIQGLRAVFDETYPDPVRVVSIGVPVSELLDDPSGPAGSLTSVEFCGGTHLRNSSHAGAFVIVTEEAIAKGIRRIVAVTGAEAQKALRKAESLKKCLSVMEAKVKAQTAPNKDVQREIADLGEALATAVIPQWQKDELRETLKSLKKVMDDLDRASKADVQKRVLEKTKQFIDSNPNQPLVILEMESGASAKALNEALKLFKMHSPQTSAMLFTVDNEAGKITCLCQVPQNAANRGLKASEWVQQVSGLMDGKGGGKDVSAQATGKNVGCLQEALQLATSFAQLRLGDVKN
Assay: Co-IP of HA-AlaRS mutant with Nrp1 in transfected cells
Type: cell-based
Settings: 20 µM Tanshinone I for 24 h, ImageJ, average of three repeats

SMILES: Cc1coc2c1C(=O)C(=O)c1c-2ccc2c(C)cccc12 [Tanshinone I]
- Mean density band (G102R), relative quantification of AlaRS mutant immunoprecipitated: 0.53
